Measurements from patent US10939678B2, “Adjuvant compositions and related methods for reducing herbicide volatility” (BOARD OF TRUSTEES OF MICHIGAN STATE UNIVERSITY, priority 2015, dated 2021).
Counter-ions that a name gives are not always drawn.

Experiments:
[1] = approximate, by way of illustration; cited from earlier work
[2] = test system: soybean plants (PIONEER 92M92); assay: Bioassay of herbicide volatility from sprayed wheat to soybean plants in plant growth chambers (visual soybean injury); assay type: in vivo; details: 1.12 kg a.i./ha, without any adjuvants
Excerpt: A wide range of soil, plant, environmental, and herbicide factors (e.g., vapor pressure and water solubility of herbicide, surface characteristics) can affect herbicide volatility from soils and plants. Comparison of the volatilization would be most readily visualized by appropriate bioassay systems. These examples illustrate a bioassay system for evaluating herbicide volatilization from plant substrates. In the bioassay system, a herbicide composition including a volatile growth regulator herbicide (2,4-D) and one or more adjuvants was applied foliarly to wheat plants (amber red wheat). Twenty minutes later, soybean plants (PIONEER 92M92 soybean plants) sensitive to the volatile growth regulator herbicide were placed in the middle of the sprayed wheat plants.
Measurement of herbicide volatility from wheat to soybean. Plant growth chambers formed from clear circular plastic containers (about 27 cm diameter) with a spacer pot in the middle were used to grow wheat plants (from amber red wheat seed) in a professional potting mix. […] The herbicide compositions were prepared and applied at a rate of 0.84 kg a.i./ha (active ingredient per hectare) at 93.5 L/ha (10 gal/acre) and 172 kPa (25 psi) using a flat fan nozzle tip (TEEJET XR8001E or equivalent; available from Spraying Systems, Co., Wheaton, Ill.).
Soybean plants (PIONEER 92M92) were seeded into 10 cm diameter round pots. A single pot with soybean plants was placed in the center of each circular plastic container 20 minutes after spraying the wheat with the respective herbicide treatment composition (i.e., with the soybean plant pot replacing the spacer pot present during wheat growth and herbicide composition application). Open clear plastic cylinders were then taped to the top of the circular containers and placed in a greenhouse. The open clear plastic cylinders were tall enough to add an open circumferential wall (about 28 cm high and having a circular top opening about 20 cm in diameter) to the plant growth chambers (i.e., with the height being relative to the soil surface for the wheat and soybean plants). Visual evaluation of soybean injury was evaluated 7, 10, 14, and 21 days after treatment/application (DAT) of the herbicide composition and continued growth under greenhouse conditions. Data were subjected to analysis of variance using PROC GLM in SAS and the results are the means of two experiments with four replications in each.
Similar trials were also performed using herbicide compositions with volatile dicamba volatile growth regulator herbicides (dimethylamine salt of dicamba (BANVEL) and diglycolamine salt of dicamba (CLARITY)) at 1.12 kg a.i./ha in place of 2,4-D and without any adjuvants.

Row | SMILES | vapor pressure [1] | % injury of soybean plants from dicamba volatility ([2]; 7-DAT) | % injury of soybean plants from dicamba volatility ([2]; 14-DAT) | % injury of soybean plants from dicamba volatility ([2]; 21-DAT)
1 | CCCCC(CC)COC(=O)COc1ccc(Cl)cc1Cl (stereo not drawn) [2,4-D 2-ethylhexyl ester] | ~4.8×10^−4 Pa |  |  | 
2 | CCCCOCCOC(=O)COc1ccc(Cl)cc1Cl [2,4-D butoxyethyl ester] | ~3.2×10^−4 Pa |  |  | 
3 | CC(C)OC(=O)COc1ccc(Cl)cc1Cl [2,4-D isopropyl ester] | ~1.9×10^1 Pa |  |  | 
4 | COc1c(Cl)ccc(Cl)c1C(=O)O [diglycolamine salt of dicamba, 3,6-dichloro-2-methoxybenzoic acid] |  | about 28% | about 31% | about 41%
5 | COc1c(Cl)ccc(Cl)c1C(=O)O [dimethylamine salt of dicamba, 3,6-dichloro-2-methoxybenzoic acid] |  | ~39% | ~39% | about 41%
